One series in a line: Acute toxicity. The following applies: mouse, in vivo; male dd-mice, po, mortality for seven days. The procedure:
The compounds were orally administrated (po: 300 mg/kg) to male dd-mice weighing 20 to 25 g. LD50 was determined by observing the mortality for seven days after the administration.

Series [1] has as its system zig-zag strips of the tracheae (passively sensitized guinea pigs). Nature of the series: Effects on passive Schultz-Dale reaction (broncho-dilatory effects). The following applies: Cavia porcellus; guinea pig trachea contracted with antigen EWA 1 μg/ml, 37° C., cumulative concentration-relaxation curves; read-out: Passive Schultz-Dale reaction (IC50), concentration of 50% relaxation rate. It counts as cell-based, guinea pig (male Hartley). The procedure:
Male Hartley guinea pigs weighing 350 to 500 g were passively sensitized by intraperitoneal injection of rabbit anti-egg white albumin (EWA) serum prepared by the method of Eda et al. [Folia pharmacol., Japon 66, 237, (1970)]. After 24 hours, the guinea pigs were stunned and exsanguinated, and then tracheae were removed. The zig-zag strips of the tracheae were prepared by the method of Emmerson and Mackay [J. Pharm. Pharmacol., 31, 798, (1979)]. The strips were suspended in Krebs-Henseleit solution at 37° C. under aeration of a mixed gas of 95% oxygen and 5% carbon dioxide, and equilibrated for one hour. Antigen (EWA) was then introduced in the solution (final concentration; 1 μg/ml), and the contraction was measured by […] (TD-112s, made by Nihon Kohden K.K., Japan) and recorded on a recorder (Type 3066, made by Yokogawa-Hokushin Denki, K.K. Japan). After the contraction curves reached plateau, the compounds were successively added in order to get cumulative concentration-relaxation curves.

For series [2], the system named is passively sensitized guinea pigs, experimental asthma. Briefly: Effects on experimental asthma. In kind it is in vivo, guinea pig (male Hartley). To be noted: guinea pig, 50 mg/kg orally, 1 hour before aerosol of 1.5% EWA; diphenhydramine and propranolol pretreated; control 254. The procedure:
Guinea pigs were passively sensitized as follows. Male Hartley guinea pigs weighing 350 to 500g were intraperitoneally injected with 1 ml of rabbit EWA serum prepared by the method of Eda et al. [Folia pharmacol., Japon, 66, 237 (1970)]. The animals were treated with intraperitoneal injection of diphenhydramine (20 mg/kg) and propranolol (5 mg/kg), 30 minutes before administration of test compounds. 17 hours after the sensitization, the test compounds (50 mg/kg) were orally administrated to sensitized animals. After one hour from the administration of the test compounds, the guinea pigs were placed in plastic observation box and were exposed to an aerosal antigen of 1.5% EWA. The time until the onset of respiratory […] symptom [collapse time (second)] was measured as a result of experimental asthma.

Data on eleven compounds can be found in patent US5010084A, “Imidazoquinolone derivatives” (Kyowa Hakko Kogyo Co., Ltd., priority 1989, dated 1991).

Structures are written as SMILES. Structures can show the parent of a compound that is named as a salt. Some results are limits rather than exact numbers.

Turning to `CCCCn1cnc2c3ccccc3n(CCCC)c(=O)c21` [Compound 5, 3,5-Di-n-Butyl-3H,5H-imidazo [4,5,-c] quinolin-4-one hydrochloride], in the series “Acute toxicity”, the LD50 (commonly the dose expected to kill half of the subjects tested) at 168 h is > 300 mg/kg.

In the case of `CCCCn1c(=O)c2c(ncn2CC(C)=O)c2ccccc21` [Compound 6, 3-Acetonyl-5-n-butyl-3H,5H-imidazo[4,5,-c]quinolin-4-one], in series [1], the IC50 turned out to be 7.9 µM. Moreover, the “Experimental asthma, collapse time (time until the onset of respiratory distresslike symptom)” value (shortened to “Experimental asthma, collapse time”) in series [2] amounted to 530 s. Also, in “Acute toxicity”, the LD50 at 168 h is > 300 mg/kg.

As to `CCCCn1c(=O)c2c(ncn2CC)c2ccccc21.Cl` [Compound 2, 5-n-Butyl-3-ethyl-3H,5H-imidazo[4,5-c]quinolin-4-one hydrochloride], in series [1], the IC50 turned out to be 2 µM. Further, in “Acute toxicity”, the LD50 at 168 h is > 300 mg/kg.

As to `CCCCn1c(=O)c2c(ncn2CC(=O)OC(C)(C)C)c2ccccc21` [Compound 7, 3-tert-Butoxycarbonylmethyl-5-n-butyl-3H,5H-imidazo[4,5-c]quinolin-4-one], the IC50 in series [1] was determined as 0.47 µM.

For the compound `CCn1c(=O)c2c(ncn2C)c2ccccc21` [Compound 9, 5-Ethyl-3-methyl-3H,5H-imidazo[4,5,-c]quinolin-4-one], in series [1], the IC50 is 1.3 µM.

`CCCCn1c(=O)c2c(ncn2CC(=O)O)c2ccccc21` [Compound 8, 5-n-Butyl-3-carboxymethyl-3H,5H-imidazo[4,5,-c]quinolin-4-one]: the IC50 in series [1] was 6.7 µM.

As for `Cn1c(=O)c2[nH]cnc2n(C)c1=O` [Aminophylline, reference compound], the IC50 in series [1] came to 23 µM.

With `CCCCn1c(=O)c2c(ncn2C)c2ccccc21` [Compound 1, 5-n-Butyl-3-methyl-3H,5H-imidazo[4,5,-c]quinolin-4-one], in series [1], the IC50 worked out at 6.7 µM. Further, the “Experimental asthma, collapse time” value in series [2] turned out to be 429 s. Also, in “Acute toxicity”, the LD50 at 168 h was > 200 mg/kg.

Take `CCCCn1c(=O)c2c(ncn2C(C)C)c2ccccc21` [Compound 4, 5-n-Butyl-3-isopropyl-3H,5H-imidazo[4,5,-c]quinolin-4-one hydrochloride]: the IC50 in series [1] was found to be 3.7 µM. Further, the LD50 at 168 h in the series “Acute toxicity” is > 300 mg/kg.

As to `Cn1c(=O)c2[nH]cnc2n(C)c1=O` [Theophylline, reference compound], the “Experimental asthma, collapse time” value in series [2] turned out to be 414 s.

Turning to `CCCCn1c(=O)c2c(ncn2CCC)c2ccccc21.Cl` [Compound 3, 5-n-Butyl-3-n-propyl-3H,5H-imidazo[4,5-c]quinolin-4-one hydrochloride], the IC50 in series [1] turned out to be 6.8 µM. Moreover, the “Experimental asthma, collapse time” value in series [2] was 348 s. In “Acute toxicity”, the LD50 at 168 h is > 300 mg/kg.
